Results as given in ChEMBL document CHEMBL6092193, “Identification of furo[2,3-d]pyrimidin-4-ylsulfanyl-1,3,4-thiadiazole derivatives as novel FLT3-ITD inhibitors” (Eur J Med Chem, 2024).

How the values were obtained:
[1] = molecular target: Receptor-type tyrosine-protein kinase FLT3 (Homo sapiens, UniProt P36888, ITD); assay: biochemical; assay type: cell-based, Sf9
MV4-11 = assay: Antiproliferative activity against human MV4-11 cells harboring homozygous FLT3-ITD mutant assessed as inhibition of cell growth incubated for 72 hrs by resazurin dye based fluorescence analysis; assay type: functional
K562 = assay: cells; details: Homo sapiens, K562, 72 h
Description: Antiproliferative activity against FLT3-independent human K562 cells assessed as inhibition of cell growth incubated for 72 hrs by resazurin dye based fluorescence analysis

MOLM-13 = assay: cells; details: Homo sapiens, MOLM-13, 72 h

Sequence of Receptor-type tyrosine-protein kinase FLT3 (P36888 whole entry, looked up, stated change not applied): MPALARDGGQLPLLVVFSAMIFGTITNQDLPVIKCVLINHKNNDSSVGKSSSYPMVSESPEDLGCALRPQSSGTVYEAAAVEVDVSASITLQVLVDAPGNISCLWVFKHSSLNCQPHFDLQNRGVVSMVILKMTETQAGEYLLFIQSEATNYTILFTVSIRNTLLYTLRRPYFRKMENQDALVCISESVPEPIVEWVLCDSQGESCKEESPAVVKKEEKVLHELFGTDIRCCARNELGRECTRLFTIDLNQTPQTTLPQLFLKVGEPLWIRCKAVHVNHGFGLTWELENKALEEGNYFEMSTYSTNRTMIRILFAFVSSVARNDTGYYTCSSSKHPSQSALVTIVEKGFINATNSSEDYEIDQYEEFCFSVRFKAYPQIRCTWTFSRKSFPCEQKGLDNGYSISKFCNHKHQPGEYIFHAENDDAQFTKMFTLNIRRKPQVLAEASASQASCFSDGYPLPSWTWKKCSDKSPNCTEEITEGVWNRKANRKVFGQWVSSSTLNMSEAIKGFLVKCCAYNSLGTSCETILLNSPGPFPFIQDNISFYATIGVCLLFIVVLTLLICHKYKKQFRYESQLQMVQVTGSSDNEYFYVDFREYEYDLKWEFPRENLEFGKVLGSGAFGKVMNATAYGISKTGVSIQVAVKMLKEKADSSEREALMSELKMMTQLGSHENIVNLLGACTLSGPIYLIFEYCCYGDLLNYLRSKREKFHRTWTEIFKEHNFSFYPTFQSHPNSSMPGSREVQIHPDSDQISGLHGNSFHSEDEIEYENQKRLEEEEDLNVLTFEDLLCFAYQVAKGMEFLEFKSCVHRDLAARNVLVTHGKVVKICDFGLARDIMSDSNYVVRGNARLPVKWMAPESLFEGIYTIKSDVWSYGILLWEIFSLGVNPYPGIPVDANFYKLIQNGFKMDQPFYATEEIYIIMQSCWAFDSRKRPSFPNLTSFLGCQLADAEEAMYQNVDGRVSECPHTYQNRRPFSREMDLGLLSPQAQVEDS

| Structure (SMILES) | IC50 [1] [nM] | GI50 (MV4-11) [nM] | GI50 (K562) [nM] | GI50 (MOLM-13) [nM] |
| --- | --- | --- | --- | --- |
| Cc1ccc(NC(=O)Nc2nnc(Sc3ncnc4oc(-c5ccccc5)c(-c5ccccc5)c34)s2)cc1Cl | > 5000 | > 10000 | > 10000 | > 10000 |
| O=C(Nc1cccc(F)c1)Nc1nnc(Sc2ncnc3oc(-c4ccccc4)cc23)s1 | 56 | 337 | 7960 | 190 |
| COc1ccc(-c2cc3c(Sc4nnc(NC(=O)Nc5ccc(Cl)cc5)s4)ncnc3o2)cc1 | 22 | 1380 | > 10000 | 1140 |
| COc1ccc(NC(=O)Nc2nnc(Sc3ncnc4oc(-c5ccc(OC)cc5)cc34)s2)cc1 | 23 | 250 | > 10000 | 180 |
| Cc1ccc(NC(=O)Nc2nnc(Sc3ncnc4oc(-c5ccccc5)cc34)s2)cc1Cl | 3 | 430 | 9500 | 375 |
| COc1ccc(-c2cc3c(Sc4nnc(NC(=O)Nc5ccccc5)s4)ncnc3o2)cc1 | 16 | 96 | > 10000 | 117 |
| Cc1cccc(NC(=O)Nc2nnc(Sc3ncnc4oc(-c5ccccc5)cc34)s2)c1 | 12 | 133 | > 10000 | 105 |
| O=C(Nc1nnc(Sc2ncnc3oc(-c4ccccc4)c(-c4ccccc4)c23)s1)Nc1ccc(F)cc1F | 6 | 169 | > 10000 | 164 |
| Cc1cccc(NC(=O)Nc2nnc(Sc3ncnc4oc(-c5ccccc5)c(-c5ccccc5)c34)s2)c1 | 10 | 115 | > 10000 | 120 |
| O=C(Nc1cccc(F)c1)Nc1nnc(Sc2ncnc3oc(-c4ccccc4)c(-c4ccccc4)c23)s1 | 4 | 145 | > 10000 | 650 |
| O=C(Nc1ccc(Cl)c(Cl)c1)Nc1nnc(Sc2ncnc3oc(-c4ccccc4)c(-c4ccccc4)c23)s1 | 455 | 6190 | > 10000 | 8660 |
| O=C(Nc1ccc(Cl)c(Cl)c1)Nc1nnc(Sc2ncnc3oc(-c4ccccc4)cc23)s1 | 4 | 1030 | 9830 | 710 |
| COc1cccc(NC(=O)Nc2nnc(Sc3ncnc4oc(-c5ccccc5)c(-c5ccccc5)c34)s2)c1 | 4 | 86 | 9950 | 185 |
| O=C(Nc1ccc(Cl)c(C(F)(F)F)c1)Nc1nnc(Sc2ncnc3oc(-c4ccccc4)cc23)s1 | 3 | 910 | > 10000 | 1220 |
| COc1ccc(-c2cc3c(Sc4nnc(NC(=O)Nc5ccc(Cl)c(C(F)(F)F)c5)s4)ncnc3o2)cc1 | 55 | > 10000 | > 10000 | 5820 |
| COc1ccc(-c2cc3c(Sc4nnc(NC(=O)Nc5cccc(Cl)c5)s4)ncnc3o2)cc1 | 48 | 1560 | > 10000 | 1060 |
| O=C(Nc1ccccc1)Nc1nnc(Sc2ncnc3oc(-c4ccccc4)cc23)s1 | 38 | 165 | > 10000 | 87 |
| COc1ccc(NC(=O)Nc2nnc(Sc3ncnc4oc(-c5ccccc5)c(-c5ccccc5)c34)s2)cc1 | 5 | 61 | > 10000 | 83 |
| O=C(Nc1ccc(Cl)c(C(F)(F)F)c1)Nc1nnc(Sc2ncnc3oc(-c4ccccc4)c(-c4ccccc4)c23)s1 | 1270 | 8300 | > 10000 | > 10000 |
| O=C(Nc1ccc(Cl)cc1)Nc1nnc(Sc2ncnc3oc(-c4ccccc4)c(-c4ccccc4)c23)s1 | 16 | 342 | 9860 | 452 |
| COc1cccc(NC(=O)Nc2nnc(Sc3ncnc4oc(-c5ccccc5)cc34)s2)c1 | 17 | 120 | 9460 | 79 |
| O=C(Nc1ccc(Br)cc1)Nc1nnc(Sc2ncnc3oc(-c4ccccc4)c(-c4ccccc4)c23)s1 | 55 | 396 | > 10000 | 723 |
| O=C(Nc1cccc(Cl)c1)Nc1nnc(Sc2ncnc3oc(-c4ccccc4)cc23)s1 | 10 | 345 | > 10000 | 240 |
| O=C(Nc1ccc(Br)cc1)Nc1nnc(Sc2ncnc3oc(-c4ccccc4)cc23)s1 | 3 | 1190 | > 10000 | 570 |
| Cc1ccc(NC(=O)Nc2nnc(Sc3ncnc4oc(-c5ccccc5)c(-c5ccccc5)c34)s2)cc1 | 5 | 134 | > 10000 | 194 |
| O=C(Nc1ccccc1)Nc1nnc(Sc2ncnc3oc(-c4ccccc4)c(-c4ccccc4)c23)s1 | 4 | 74 | > 10000 | 110 |
| O=C(Nc1nnc(Sc2ncnc3oc(-c4ccccc4)c(-c4ccccc4)c23)s1)Nc1ccccc1Br | 4 | 290 | > 10000 | 427 |
| O=C(Nc1ccc(Cl)cc1)Nc1nnc(Sc2ncnc3oc(-c4ccccc4)cc23)s1 | 9 | 430 | > 10000 | 297 |
| O=C(Nc1cccc(Cl)c1)Nc1nnc(Sc2ncnc3oc(-c4ccccc4)c(-c4ccccc4)c23)s1 | 14 | 362 | > 10000 | 404 |
